From ChEMBL document CHEMBL1201862, “PubChem BioAssay data set” (2004)
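All cell lines were grown in 96-well plates and treated with compound for 48 hours. The concentration for 50% growth inhibition is given as GI50.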 Activity calls are given as the source filed them. Rule as the data show it: active = GI50 up to about 1.1 µM and inactive = higher.

How the values were obtained:
Assay in all cases: DTP human tumour cell line panel, 48 h
CCRF-CEM = test system: CCRF-CEM
SK-MEL-2 = test system: SK-MEL-2
Malme-3M = test system: Malme-3M
NCI/ADR-RES = test system: NCI/ADR-RES
MDA-N = test system: MDA-N
OVCAR-5 = test system: OVCAR-5
KM12 = test system: KM12
HCT-116 = test system: HCT-116
SR = test system: SR
DU-145 = test system: DU-145
RXF 393 = test system: RXF 393
SNB-19 = test system: SNB-19
MDA-MB-231 = test system: MDA-MB-231
U-251 = test system: U-251
CAKI-1 = test system: CAKI-1
T47D = test system: T47D
EKVX = test system: EKVX
MDA-MB-435 = test system: MDA-MB-435
UO-31 = test system: UO-31
HOP-92 = test system: HOP-92

| Compound | GI50 (CCRF-CEM) | GI50 (SK-MEL-2) | GI50 (Malme-3M) | GI50 (NCI/ADR-RES) | GI50 (MDA-N) | GI50 (OVCAR-5) | GI50 (KM12) | GI50 (HCT-116) | GI50 (SR) | GI50 (DU-145) | GI50 (RXF 393) | GI50 (SNB-19) | GI50 (MDA-MB-231) | GI50 (U-251) | GI50 (CAKI-1) | GI50 (T47D) | GI50 (EKVX) | GI50 (MDA-MB-435) | GI50 (UO-31) | GI50 (HOP-92) |
| --- | --- | --- | --- | --- | --- | --- | --- | --- | --- | --- | --- | --- | --- | --- | --- | --- | --- | --- | --- | --- |
| COc1ccccc1-n1c(=O)n(C)c(=O)n1C(C)(C)C | > 100 µM (inactive) | > 100 µM (inactive) | > 100 µM (inactive) | > 100 µM (inactive) | > 100 µM (inactive) | > 100 µM (inactive) | > 100 µM (inactive) | > 100 µM (inactive) | > 100 µM (inactive) | > 100 µM (inactive) | > 100 µM (inactive) | > 100 µM (inactive) | > 100 µM (inactive) | > 100 µM (inactive) | > 100 µM (inactive) | > 100 µM (inactive) | > 100 µM (inactive) | > 100 µM (inactive) | > 100 µM (inactive) | – |
| CCCCCC(C)(C)CCC(=O)OC1OC(COC2OC(COC3OC(CO)C(O)C(O)C3O)C(O)C(O)C2O)C(O)C(O)C1O (configuration not stated) | > 100 µM (inactive) | > 100 µM (inactive) | > 100 µM (inactive) | > 100 µM (inactive) | > 100 µM (inactive) | > 100 µM (inactive) | > 100 µM (inactive) | > 100 µM (inactive) | > 100 µM (inactive) | > 100 µM (inactive) | 6.17 µM (inactive) | > 100 µM (inactive) | > 100 µM (inactive) | > 100 µM (inactive) | – | > 100 µM (inactive) | > 100 µM (inactive) | > 100 µM (inactive) | > 100 µM (inactive) | > 100 µM (inactive) |
| C=CCc1cccc2cc(C(N)=O)c(=N)oc12 | 52.8 µM (inactive) | 99.5 µM (inactive) | – | > 100 µM (inactive) | > 100 µM (inactive) | > 100 µM (inactive) | > 100 µM (inactive) | 78.2 µM (inactive) | 40.6 µM (inactive) | > 100 µM (inactive) | > 100 µM (inactive) | > 100 µM (inactive) | > 100 µM (inactive) | > 100 µM (inactive) | > 100 µM (inactive) | 41.5 µM (inactive) | – | 95.7 µM (inactive) | – | 68.7 µM (inactive) |
| Cc1cc(O)c(C(c2cccnc2)c2c(O)cc(C)[nH]c2=O)c(=O)[nH]1 | > 100 µM (inactive) | – | > 100 µM (inactive) | > 100 µM (inactive) | > 100 µM (inactive) | > 100 µM (inactive) | > 100 µM (inactive) | > 100 µM (inactive) | > 100 µM (inactive) | > 100 µM (inactive) | > 100 µM (inactive) | > 100 µM (inactive) | > 100 µM (inactive) | > 100 µM (inactive) | > 100 µM (inactive) | > 100 µM (inactive) | > 100 µM (inactive) | > 100 µM (inactive) | > 100 µM (inactive) | – |
| O=C1SC(c2ccc(Cl)cc2)(c2ccc(Cl)cc2)c2ccccc21 | 36.2 µM (inactive) | 22.6 µM (inactive) | > 100 µM (inactive) | > 100 µM (inactive) | 62.4 µM (inactive) | > 100 µM (inactive) | 66.7 µM (inactive) | 13.3 µM (inactive) | – | 89.1 µM (inactive) | 39.4 µM (inactive) | > 100 µM (inactive) | > 100 µM (inactive) | > 100 µM (inactive) | > 100 µM (inactive) | 69 µM (inactive) | 86.7 µM (inactive) | 61.5 µM (inactive) | 76.6 µM (inactive) | 81.5 µM (inactive) |
| c1cc(CN2CCNCCNCCNCC2)cc(CN2CCNCCNCCNCC2)c1 | – | > 100 µM (inactive) | > 100 µM (inactive) | > 100 µM (inactive) | > 100 µM (inactive) | > 100 µM (inactive) | > 100 µM (inactive) | > 100 µM (inactive) | > 100 µM (inactive) | > 100 µM (inactive) | – | > 100 µM (inactive) | > 100 µM (inactive) | > 100 µM (inactive) | – | > 100 µM (inactive) | > 100 µM (inactive) | > 100 µM (inactive) | > 100 µM (inactive) | – |
| CC1C2C=CC1C(c1c3ccc(=O)c(O)c-3oc3c(O)c(O)ccc13)C2C(=O)O (configuration not stated) | 1.01 µM (active) | > 100 µM (inactive) | – | > 100 µM (inactive) | 21.4 µM (inactive) | > 100 µM (inactive) | 50.2 µM (inactive) | 27.8 µM (inactive) | 33.9 µM (inactive) | > 100 µM (inactive) | > 100 µM (inactive) | > 100 µM (inactive) | > 100 µM (inactive) | 36.5 µM (inactive) | > 100 µM (inactive) | > 100 µM (inactive) | 50.9 µM (inactive) | 19.6 µM (inactive) | > 100 µM (inactive) | 75 µM (inactive) |
| COc1ccc(C(=O)c2[nH]c(Nc3cc(C)ccn3)c(C(=S)Nc3ccccc3)c2N)cc1 | – | 10.1 µM (inactive) | 14.6 µM (inactive) | 3.49 µM (inactive) | 15.3 µM (inactive) | 26.1 µM (inactive) | 13.3 µM (inactive) | 20.7 µM (inactive) | 15.2 µM (inactive) | 36.6 µM (inactive) | 16.9 µM (inactive) | 18.8 µM (inactive) | 20 µM (inactive) | 15.3 µM (inactive) | 36.6 µM (inactive) | 51.2 µM (inactive) | 22.3 µM (inactive) | 19.4 µM (inactive) | 21.8 µM (inactive) | – |
| CCCCCCCCCCCCCCCCCC(=O)OCC(COC(=O)CCCN)OC(=O)CCCN (configuration not stated) | 28.8 µM (inactive) | – | 23.2 µM (inactive) | 19.7 µM (inactive) | 19.9 µM (inactive) | 15.9 µM (inactive) | 15.5 µM (inactive) | 19.5 µM (inactive) | 23.6 µM (inactive) | 19.6 µM (inactive) | 15.1 µM (inactive) | 21.8 µM (inactive) | 15 µM (inactive) | 20.6 µM (inactive) | 18.7 µM (inactive) | 17.4 µM (inactive) | 20.8 µM (inactive) | 17.2 µM (inactive) | 1.96 µM (inactive) | 13.4 µM (inactive) |
| C=C(C)C(=O)O[C@H]1C[C@@]23O[C@@H]2CCC(=C[C@H]2OC(=O)C(=C)[C@H]12)COC3O (some centres not stated) | 17.2 µM (inactive) | 70.3 µM (inactive) | – | 44.6 µM (inactive) | 49.2 µM (inactive) | > 100 µM (inactive) | > 100 µM (inactive) | 18.9 µM (inactive) | 24.7 µM (inactive) | > 100 µM (inactive) | 25.1 µM (inactive) | > 100 µM (inactive) | > 100 µM (inactive) | > 100 µM (inactive) | > 100 µM (inactive) | 35.4 µM (inactive) | 49.2 µM (inactive) | 44.3 µM (inactive) | – | 21.9 µM (inactive) |
| CO/N=C\c1ccc2c(c1)Sc1ccccc1O2 | – | 35.1 µM (inactive) | 31.4 µM (inactive) | 90.6 µM (inactive) | 47.2 µM (inactive) | 48.2 µM (inactive) | 42.3 µM (inactive) | 40.3 µM (inactive) | 23.4 µM (inactive) | > 100 µM (inactive) | 27.5 µM (inactive) | > 100 µM (inactive) | > 100 µM (inactive) | 54.5 µM (inactive) | > 100 µM (inactive) | 24.5 µM (inactive) | 30.2 µM (inactive) | 29.9 µM (inactive) | 58.3 µM (inactive) | 36.4 µM (inactive) |
| CC(C(=O)N1c2ccccc2Sc2ccccc21)N1c2ccccc2Sc2ccccc21 (configuration not stated) | 57.1 µM (inactive) | > 100 µM (inactive) | > 100 µM (inactive) | > 100 µM (inactive) | > 100 µM (inactive) | > 100 µM (inactive) | 72.1 µM (inactive) | > 100 µM (inactive) | > 100 µM (inactive) | > 100 µM (inactive) | > 100 µM (inactive) | > 100 µM (inactive) | > 100 µM (inactive) | 60 µM (inactive) | – | 46.1 µM (inactive) | > 100 µM (inactive) | > 100 µM (inactive) | 70.1 µM (inactive) | 26.2 µM (inactive) |
| Cc1ccc2c(c1)C(=O)c1nc(C)ccc1C2=O | 27.9 µM (inactive) | > 100 µM (inactive) | 4.95 µM (inactive) | 21.4 µM (inactive) | 20.2 µM (inactive) | 86.1 µM (inactive) | 23.3 µM (inactive) | 23.9 µM (inactive) | 47.1 µM (inactive) | 32.3 µM (inactive) | 66.7 µM (inactive) | 22.4 µM (inactive) | 13.9 µM (inactive) | 35.5 µM (inactive) | 24.8 µM (inactive) | 38.3 µM (inactive) | 29.4 µM (inactive) | 21.6 µM (inactive) | 26.4 µM (inactive) | – |
| Cc1ccc(S(=O)(=O)N/N=C2/CCC(C(C)(C)C)CC2Br)cc1 (configuration not stated) | 24.5 µM (inactive) | 13.7 µM (inactive) | 16.3 µM (inactive) | 17.6 µM (inactive) | 28.2 µM (inactive) | 19.5 µM (inactive) | 20.8 µM (inactive) | 23.1 µM (inactive) | 39 µM (inactive) | 42.6 µM (inactive) | – | 36.6 µM (inactive) | 37.9 µM (inactive) | 8.24 µM (inactive) | 28.1 µM (inactive) | 27.4 µM (inactive) | 36.6 µM (inactive) | 18.7 µM (inactive) | 17.2 µM (inactive) | 26.1 µM (inactive) |
| NC(=O)C[S+]([O-])CC(N)C(=O)O (configuration not stated) | – | > 100 µM (inactive) | > 100 µM (inactive) | > 100 µM (inactive) | > 100 µM (inactive) | > 100 µM (inactive) | > 100 µM (inactive) | > 100 µM (inactive) | > 100 µM (inactive) | > 100 µM (inactive) | > 100 µM (inactive) | > 100 µM (inactive) | > 100 µM (inactive) | > 100 µM (inactive) | > 100 µM (inactive) | > 100 µM (inactive) | > 100 µM (inactive) | > 100 µM (inactive) | > 100 µM (inactive) | > 100 µM (inactive) |
